Results as given in patent US20220104492A1, “PYRIDAZINIUM COMPOUNDS FOR USE IN A METHOD OF CONTROLLING UNWANTED PLANT GROWTH” (SYNGENTA CROP PROTECTION AG, priority 2019, published 2022).
Like-named read-outs stand apart in the source and are kept apart here.

Legend:
Test in all cases: Post-emergence efficacy (glasshouse, spray application)
Type in all cases: in vivo
[1] = test system: Amaranthus palmeri (AMAPA); details: 312 h, read-out: Control of weed species after post-emergence application, AMAPA
Method: (§1) Seeds of a variety of test species were sown in standard soil in pots. After cultivation for 14 days (post-emergence) under controlled conditions in a glasshouse (at 24/16° C., day/night; 14 hours light; 65 humidity), the plants were sprayed with an aqueous spray solution derived from the dissolution of the technical active ingredient formula (I) in a small amount of acetone and a special solvent and emulsifier mixture referred to as IF50 (11.12% Emulsogen EL360 TM+44.44% N-methylpyrrolidone+44.44% Dowanol DPM glycol ether), to create a 50 g/l solution which was then diluted to required concentration using a solution of 0.25% or 1% Empicol ESC70 (Sodium lauryl ether sulphate)+1% ammonium sulphate in water as diluent.
(§2) The test plants were then grown in a glasshouse under controlled conditions (at 24/16° C., day/night; 14 hours light; 65% humidity) and watered twice daily. After 13 days the test was evaluated (100=total damage to plant; 0=no damage to plant).
(§3) Ipomoea hederacea (IPOHE), Euphorbia heterophylla (EPHHL), Chenopodium album (CHEAL), Amaranthus palmeri (AMAPA), Lolium perenne (LOLPE), Digitaria sanguinalis (DIGSA), Eleusine indica (ELEIN), Echinochloa crus-galli (ECHCG), Setaria faberi (SETFA)

[2] = test system: Echinochloa crus-galli (ECHCG); details: 312 h, read-out: Control of weed species after post-emergence application, ECHCG
Method: as §1, §2, §3

[3] = test system: Eleusine indica (ELEIN); details: 312 h, read-out: Control of weed species after post-emergence application, ELEIN
Method: as §1, §2, §3

[4] = test system: Setaria faberi (SETFA); details: 312 h, read-out: Control of weed species after post-emergence application, SETFA
Method: as §1, §2, §3

[5] = test system: Euphorbia heterophylla (EPHHL); details: 312 h, read-out: Control of weed species after post-emergence application, EPHHL
Method: as §1, §2, §3

[6] = test system: Ipomoea hederacea (IPOHE); details: 312 h, read-out: Control of weed species after post-emergence application, IPOHE
Method: as §1, §2, §3

[7] = test system: Digitaria sanguinalis (DIGSA); details: 312 h, read-out: Control of weed species after post-emergence application, DIGSA
Method: as §1, §2, §3

[8] = test system: Lolium perenne (LOLPE); details: 312 h, read-out: Control of weed species after post-emergence application, LOLPE
Method: as §1, §2, §3

[9] = test system: Chenopodium album (CHEAL); details: 312 h, read-out: Control of weed species after post-emergence application, CHEAL
Method: as §1, §2, §3

[10] = Application rate 500 g/Ha, evaluated after 13 days, 100=total damage to plant, 0=no damage to plant

`O=C(O)CNC(=O)C[n+]1ccc(-c2ncccn2)cn1` [Compound A1, 2-[[2-(4-pyrimidin-2-ylpyridazin-1-ium-1-yl)acetyl]amino]acetic acid 2,2,2-trifluoroacetate] showed a pest or weed control at 500 g/ha [1] of 100%, a pest or weed control at 500 g/ha [2] of 70% and a pest or weed control at 500 g/ha [3] of 90%. For the same molecule, the pest or weed control at 500 g/ha [4] was 60%, the pest or weed control at 500 g/ha [5] was 90% and the pest or weed control at 500 g/ha [6] was 100%. The pest or weed control at 500 g/ha [7] was 90%, the pest or weed control at 500 g/ha [8] was 70% and the pest or weed control at 500 g/ha [9] was 100%.
`CCC(NC(=O)C[n+]1ccc(-c2ncccn2)cn1)C(=O)O` (stereo not shown) [Compound A2] was tested, and the pest or weed control at 500 g/ha [1, 10] was 100%, the pest or weed control at 500 g/ha [2, 10] was 90% and the pest or weed control at 500 g/ha [3, 10] was 70%. For the same molecule, the pest or weed control at 500 g/ha [4, 10] was 40%, the pest or weed control at 500 g/ha [5, 10] was 100% and the pest or weed control at 500 g/ha [6, 10] was 100%. The pest or weed control at 500 g/ha [7, 10] was 80%, the pest or weed control at 500 g/ha [8, 10] was 40% and the pest or weed control at 500 g/ha [9, 10] was 90%.
For `CCCC(NC(=O)C[n+]1ccc(-c2ncccn2)cn1)C(=O)O` (stereo not shown) [Compound A3], the pest or weed control at 500 g/ha [1, 10] was 100%, the pest or weed control at 500 g/ha [2, 10] was 90% and the pest or weed control at 500 g/ha [3, 10] was 100%. The pest or weed control at 500 g/ha [4, 10] was 70%, the pest or weed control at 500 g/ha [5, 10] was 100% and the pest or weed control at 500 g/ha [6, 10] was 70%. The pest or weed control at 500 g/ha [7, 10] was 90%, the pest or weed control at 500 g/ha [8, 10] was 50% and the pest or weed control at 500 g/ha [9, 10] was 100%.
In the case of `O=C(O)COCC[n+]1ccc(-c2ncccn2)cn1` [Compound A4], the pest or weed control at 500 g/ha [1, 10] was 100%, the pest or weed control at 500 g/ha [2, 10] was 90% and the pest or weed control at 500 g/ha [3, 10] was 100%. It also gave a pest or weed control at 500 g/ha [4, 10] of 100%, a pest or weed control at 500 g/ha [5, 10] of 100% and a pest or weed control at 500 g/ha [6, 10] of 90%. The pest or weed control at 500 g/ha [7, 10] was 90%, the pest or weed control at 500 g/ha [8, 10] was 80% and the pest or weed control at 500 g/ha [9, 10] was 100%.
`CCC(C)C(NC(=O)C[n+]1ccc(-c2ncccn2)cn1)C(=O)O` (stereo not shown) [Compound A5] showed a pest or weed control at 500 g/ha [1, 10] of 100%, a pest or weed control at 500 g/ha [2, 10] of 30% and a pest or weed control at 500 g/ha [3, 10] of 10%. For the same molecule, the pest or weed control at 500 g/ha [4, 10] was 10%, the pest or weed control at 500 g/ha [5, 10] was 100% and the pest or weed control at 500 g/ha [6, 10] was 60%. For the same molecule, the pest or weed control at 500 g/ha [7, 10] was 10%, the pest or weed control at 500 g/ha [8, 10] was 0% and the pest or weed control at 500 g/ha [9, 10] was 100%.
Molecule `CC(C)CC(NC(=O)C[n+]1ccc(-c2ncccn2)cn1)C(=O)O` (stereo not shown) [Compound A6] has a pest or weed control at 500 g/ha [1, 10] of 100%, a pest or weed control at 500 g/ha [2, 10] of 70% and a pest or weed control at 500 g/ha [3, 10] of 90%. The pest or weed control at 500 g/ha [4, 10] was 50%, the pest or weed control at 500 g/ha [5, 10] was 100% and the pest or weed control at 500 g/ha [6, 10] was 90%. For the same molecule, the pest or weed control at 500 g/ha [7, 10] was 50%, the pest or weed control at 500 g/ha [8, 10] was 40% and the pest or weed control at 500 g/ha [9, 10] was 100%.
With `NC(=O)CC(NC(=O)C[n+]1ccc(-c2ncccn2)cn1)C(=O)O` (stereo not shown) [Compound A7] the pest or weed control at 500 g/ha [1, 10] was 10%, the pest or weed control at 500 g/ha [2, 10] was 30% and the pest or weed control at 500 g/ha [3, 10] was 30%. It also gave a pest or weed control at 500 g/ha [4, 10] of 40%, a pest or weed control at 500 g/ha [5, 10] of 30% and a pest or weed control at 500 g/ha [6, 10] of 0%. For the same molecule, the pest or weed control at 500 g/ha [7, 10] was 40%, the pest or weed control at 500 g/ha [8, 10] was 0% and the pest or weed control at 500 g/ha [9, 10] was 60%.
`OCCOCC[n+]1ccc(-c2ncccn2)cn1` [Compound A17, 2-[2-(4-pyrimidin-2-ylpyridazin-1-ium-1-yl)ethoxy]ethanol 2,2,2-trifluoroacetate] was tested, and the pest or weed control at 500 g/ha [1, 10] was 30%, the pest or weed control at 500 g/ha [2, 10] was 30% and the pest or weed control at 500 g/ha [3, 10] was 20%. It also gave a pest or weed control at 500 g/ha [4, 10] of 20%, a pest or weed control at 500 g/ha [5, 10] of 30% and a pest or weed control at 500 g/ha [6, 10] of 0%. The pest or weed control at 500 g/ha [8, 10] was 10% and the pest or weed control at 500 g/ha [9, 10] was 50%.
Molecule `O=C(O)CNS(=O)(=O)CC[n+]1ccc(-c2ncccn2)cn1` [Compound A29, 2-[2-(4-pyrimidin-2-ylpyridazin-1-ium-1-yl)ethylsulfonylamino]-acetic acid 2,2,2-trifluoroacetate] has a pest or weed control at 500 g/ha [1, 10] of 100%, a pest or weed control at 500 g/ha [2, 10] of 50% and a pest or weed control at 500 g/ha [3, 10] of 70%. It also gave a pest or weed control at 500 g/ha [4, 10] of 60%, a pest or weed control at 500 g/ha [5, 10] of 90% and a pest or weed control at 500 g/ha [6, 10] of 40%. The pest or weed control at 500 g/ha [8, 10] was 50% and the pest or weed control at 500 g/ha [9, 10] was 70%.
